Data set [1] in a line: Drug metabolic stability, S9 fraction with NADPH. Format: in vitro ADME.
Data set [2] concerns caspase-3 activation in MDA-MB-231 cells. The data set can be described thus: Caspase-3 activation. Conditions: MDA-MB-231, 24 hours.
A further data set in a line: Permeability by PAMPA. Format: in vitro ADME. For orientation: In PAMPA a lipid-coated filter parts donor from acceptor wells.
Data set [3] has as its system MDA-MB-231 breast cancer cell lines. As to conditions: cited from earlier work.
The subject of a further data set is MDA-MB-231 cells. As to the kind of experiment: ATPLite cell viability, compound 3 and TRAIL alone or combined. Format: cell-based, human. As to conditions: low concentrations up to 110 ng/mL, 20 hours. (In general: Cellular ATP, detected with luciferase, serves as a proxy for viable cell number.)

Like-named read-outs stand apart in the source and are kept apart here.

As for `CN[C@@H](C)C(=O)Nc1ccc(Oc2ccc(OC)cc2)c(C(=O)NCc2csc(-c3cccs3)n2)c1` [Compound 3, (S)-2-(4-methoxyphenoxy)-5-(2-(methylamino)propanamido)-N-((2-(thiophen-2-yl)thiazol-4-yl)methyl)benzamide], the half-life (in general, the time needed for the level to fall by half in the phase considered) in data set [1] amounted to 14.5 min. Also, the caspase-3 activation result in data set [2] is reported as “increases caspase-3 activation”. Also, the “Permeability (2 %), class” value in “Permeability by PAMPA” is “High”.

Consider `COc1cc([C@@H]2c3cc4c(cc3[C@@H](O[C@@H]3O[C@@H]5CO[C@@H](C)O[C@H]5[C@H](O)[C@H]3O)[C@H]3COC(=O)[C@H]23)OCO4)cc(OC)c1O` [etoposide, reference compound], for which, in data set [3] (etoposide 5 µM), the DNA fragmentation entry is on record as “no obvious DNA fragmentation”.

B1: TRAIL: tumor necrosis factor-related apoptosis-inducing ligand (Genentech) (protein, UniProt P50591 1-281, looked up)
Tumor necrosis factor ligand …: MAMMEVQGGPSLGQTCVLIVIFTVLLQSLCVAVTYVYFTNELKQMQDKYSKSGIACFLKEDDSYWDPNDEESMNSPCWQVKWQLRQLVRKMILRTSEETISTVQEKQQNISPLVRERGPQRVAAHITGTRGRSNTLSSPNSKNEKALGRKINSWESSRSGHSFLSNLHLRNGELVIHEKGFYYIYSQTYFRFQEEIKENTKNDKQMVQYIYKYTSYPDPILLMKSARNSCWSKDAEYGLYSIYQGGIFELKENDRIFVSVTNEHLIDMDHEASFFGAFLVG
For the molecule B1, in the data set on MDA-MB-231 cells, the “induction of tumor cell death, TRAIL alone” value was “very little effects”. Also, the DNA fragmentation result in data set [3] (TRAIL 30 ng/ml) is reported as “no obvious DNA fragmentation”.
